From patent US4370323A, “2-Cyanoaziridinyl-(1)-2-substituted-aziridinyl-(1)-methanes” (Boehringer Mannheim GmbH, priority 1976, dated 1983)

What was measured:
[1] = prior art compound, cited from earlier work
[2] = test system: leukocytes, lymphocytes, erythrocytes, antibody-forming spleen cells; details: intravenous; cited from earlier work
leucocyte number = experiment: Alteration of the leucocyte number in rats; type: in vivo, female Sprague-Dawley rats; details: fourth day, ten rats; for response vs control in vivo at 50 mg/kg / response vs control in vivo at 200 mg/kg: Rattus norvegicus, Leucocyte, po, 96 h, read-out: proportion of the average leucocyte number of the test group to that of the control group; for proportion of the average leucocyte number of the test group to that of the control group: oral
Method: (a) Alteration of the leucocyte number
The active substance was dissolved in each case in 10 ml of a 1% methyl-hydroxyethyl cellulose solution per kg of body weight and orally applied by means of a neck tube to ten fasting female Sprague-Dawley rats in each case. On the fourth day, blood was taken retroorbitally and the leucocyte number was determined by means of a coult counter.

[3] = Acute toxicity (LD50) in mice; details: mouse, in vivo, ip, single intraperitoneal administration
Method: (§1) These values are much higher than the pharmacologically effective dosages (0.5-50 mg/kg body weight).

Walker-Carcinoma 256 = experiment: Cancerostatic effect: Walker-Carcinoma 256 transplanted in rats; type: in vivo, female Sprague-Dawley rats; details: for Tumor weight: three days prior to tumor application, day 7, average of 20 animals; for Difference (tumor weight): vs control
Method: (§2) Ready-to-be-transplanted tumors of various kinds were taken from freshly killed rats, comminuted coarsely and pulverized with addition of 8 ml of physiological sodium chloride solution. Female Sprague-Dawley rats weighing 80 to 100 g were used as test animals. The respective tumor cell suspension was applied subfacially to the animals in an amount of 0.5 ml per animal under sterile conditions in the neck area. On the seventh day after the transplantation the animals were killed, the tumors taken out and weighed. The substances according to the instant invention were in each case applied orally three days prior to the tumor application by means of a throat tube (in 10 ml 1% hydrous methylhydroxylethyl cellulose solution per kg of body weight).

DC-Carcino-Sarcoma = experiment: Cancerostatic effect: DC-Carcino-Sarcoma transplanted in rats; type: in vivo, female Sprague-Dawley rats; details: for Tumor weight: three days prior to tumor application, day 7, average of 20 animals; for Difference (tumor weight): vs control
Method: as §2

[4] = Acute toxicity (LD50) in rats; details: rat, in vivo
Method: as §1

Candida albicans-219 = experiment: Resistance increase in case of Candida albicans infection in mice; type: in vivo, Candida albicans; female NMRI mice; details: 50 mg per kg oral, one hour after i.v. infection, after six days
Method: Female, adult NMRI mice weighing 25-30 g were infected with Candida albicans-219. A suspension of approximately 300,000 germs in 0.2 ml physiological sodium chloride per animal was given intravenously. One hour later, 50 mg of the compound of Example 1, per kg body weight, were applied orally by way of neck tube, dissolved in 10 ml 0.1% methyl-hydroxyethyl cellulose. The control group received the same solution without active material. After six days, 18 of the 30 animals of the control group were dead, but only 3 of the 30 animals of the test group, which corresponds to a survival rate of 90% and makes clearly evident the resistance-increasing effect.

Candida albicans = experiment: In vitro fungistatic effect; type: cell-based

## N#CC1CN1C(N)=O (stereo not drawn) [1-carboxamido-2-cyanoaziridine]
[1]; buffered aqueous solution
  keeping time in buffered aqueous solution: can only be kept for a short time
[1]
  acid stability: acid lability
[2]
  antibody-forming spleen cells: increase of the antibody-forming spleen cells
  cytostatic action: cytostatic action
  number of erythrocytes: substantially unchanged
  number of leukocytes and lymphocytes: marked increase

## CC(C)C(N1CC1C#N)N1CC1C(N)=O (stereo not drawn) [27 a]
Leucocyte number; 50 mg per kg body weight
  response vs control in vivo at 50 mg/kg: 119%
Leucocyte number; 200 mg per kg body weight
  response vs control in vivo at 200 mg/kg: 166%

## CCC(N1CC1C#N)N1CC1C(N)=O (stereo not drawn) [27 d]
Leucocyte number; 50 mg per kg body weight
  response vs control in vivo at 50 mg/kg: 140%
Leucocyte number; 200 mg per kg body weight
  response vs control in vivo at 200 mg/kg: 178%

## CCCC(N1CC1C#N)N1CC1C(N)=O (stereo not drawn) [27 e]
Leucocyte number; 50 mg per kg body weight
  response vs control in vivo at 50 mg/kg: 130%
Leucocyte number; 200 mg per kg body weight
  response vs control in vivo at 200 mg/kg: 136%

## N#CC1CN1C1(N2CC2C(N)=O)CCOCC1 (stereo not drawn) [28 a]
Leucocyte number; 50 mg per kg body weight
  response vs control in vivo at 50 mg/kg: 109%
Leucocyte number; 200 mg per kg body weight
  response vs control in vivo at 200 mg/kg: 130%

## N#CC1CN1C(C1CCCCC1)N1CC1C(N)=O (stereo not drawn) [28 b]
Leucocyte number; 50 mg per kg body weight
  response vs control in vivo at 50 mg/kg: 120%
Leucocyte number; 200 mg per kg body weight
  response vs control in vivo at 200 mg/kg: 155%

## N#CC1CN1C(c1ccc(Cl)cc1)N1CC1C(N)=O (stereo not drawn) [29 b]
Leucocyte number; 50 mg per kg body weight
  response vs control in vivo at 50 mg/kg: 100%
Leucocyte number; 200 mg per kg body weight
  response vs control in vivo at 200 mg/kg: 140%

## N#CC1CN1C(c1ccco1)N1CC1C(N)=O (stereo not drawn) [29 d]
Leucocyte number; 50 mg per kg body weight
  response vs control in vivo at 50 mg/kg: 100%
Leucocyte number; 200 mg per kg body weight
  response vs control in vivo at 200 mg/kg: 130%

## N#CC1CN1C(c1cccs1)N1CC1C(N)=O (stereo not drawn) [29 e]
Leucocyte number; 50 mg per kg body weight
  response vs control in vivo at 50 mg/kg: 115%
Leucocyte number; 200 mg per kg body weight
  response vs control in vivo at 200 mg/kg: 150%

## N#CC1CN1C(c1cccc([N+](=O)[O-])c1)N1CC1C(N)=O (stereo not drawn) [29 f]
Leucocyte number; 50 mg per kg body weight
  response vs control in vivo at 50 mg/kg: 109%
Leucocyte number; 200 mg per kg body weight
  response vs control in vivo at 200 mg/kg: 126%

## Cc1ccccc1C(N1CC1C#N)N1CC1C(N)=O (stereo not drawn) [30 a]
Leucocyte number; 50 mg per kg body weight
  response vs control in vivo at 50 mg/kg: 140%
Leucocyte number; 200 mg per kg body weight
  response vs control in vivo at 200 mg/kg: 134%

## COc1cccc(C(N2CC2C#N)N2CC2C(N)=O)c1 (stereo not drawn) [30 b]
Leucocyte number; 50 mg per kg body weight
  response vs control in vivo at 50 mg/kg: 122%
Leucocyte number; 200 mg per kg body weight
  response vs control in vivo at 200 mg/kg: 131%

## N#CC1CN1C(c1ccc(O)cc1)N1CC1C(N)=O (stereo not drawn) [30 c]
Leucocyte number; 50 mg per kg body weight
  response vs control in vivo at 50 mg/kg: 170%
Leucocyte number; 200 mg per kg body weight
  response vs control in vivo at 200 mg/kg: 221%

## COC(=O)c1ccc(C(N2CC2C#N)N2CC2C(N)=O)cc1 (stereo not drawn) [30 d]
Leucocyte number; 50 mg per kg body weight
  response vs control in vivo at 50 mg/kg: 108%
Leucocyte number; 200 mg per kg body weight
  response vs control in vivo at 200 mg/kg: 150%

## CC(C)(N1CC1C#N)N1CC1C(N)=O (stereo not drawn) [Example 1, 2-[2-Cyanoaziridinyl-(1)]-2-[2-carbamoylaziridinyl-(1)]-propane]
[3]
  LD50: 2270 mg/kg
Walker-Carcinoma 256; 5.0 mg/kg oral
  Tumor weight: 11.8 g
  Difference (tumor weight): -27.1%
Walker-Carcinoma 256; 50.0 mg/kg oral
  Tumor weight: 12.1 g
  Difference (tumor weight): -25.4%
Walker-Carcinoma 256; 100.0 mg/kg oral
  Tumor weight: 15.6 g
Leucocyte number; 50 mg per kg body weight
  proportion of the average leucocyte number of the test group to that of the control group: 1,70
Leucocyte number; 200 mg per kg body weight
  proportion of the average leucocyte number of the test group to that of the control group: 1,55
DC-Carcino-Sarcoma; 150 mg/kg oral
  Tumor weight: 5.9 g
  Difference (tumor weight): -67.0%
DC-Carcino-Sarcoma; 300 mg/kg oral
  Tumor weight: 9.8 g
  Difference (tumor weight): -45.0%
[4]; ip, single intraperitoneal administration, read-out: acute toxicity (LD50)
  LD50: 2550 mg/kg
[4]; oral administration, read-out: LD50
  LD50: 3100 mg/kg
Candida albicans-219
  survival rate: 90%
Candida albicans-219; control 18 of 30
  dead animals: 3 of the 30 animals
Candida albicans
  fungistatic effect: no fungistatic effect

## CC(C)(N1CC1C#N)N1CC1C(N)=O (stereo not drawn) [Example 3, 2-[2-Cyanoaziridinyl-(1)]-2-[2-carbamoylaziridinyl-(1)]-propane]
Leucocyte number; 50 mg per kg body weight
  proportion of the average leucocyte number of the test group to that of the control group: 1,42
Leucocyte number; 200 mg per kg body weight
  proportion of the average leucocyte number of the test group to that of the control group: 1,82

## CCOC(=O)C(C)(N1CC1C#N)N1CC1C(N)=O (stereo not drawn) [Example 6, Ethyl α-[2-cyanoaziridinyl-(1)]-α-[2-carbamoylaziridinyl-(1)]-propionate]
Leucocyte number; 50 mg per kg body weight
  response vs control in vivo at 50 mg/kg: 115%
Leucocyte number; 200 mg per kg body weight
  response vs control in vivo at 200 mg/kg: 165%

## CC(C1CC1)(N1CC1C#N)N1CC1C(N)=O (stereo not drawn) [Example 9, 1-[2-cyanoaziridinyl-(1)]-1-[2-carbamoylaziridinyl-(1)]-1-cyclopropylethane]
Leucocyte number; 50 mg per kg body weight
  response vs control in vivo at 50 mg/kg: 132%
Leucocyte number; 200 mg per kg body weight
  response vs control in vivo at 200 mg/kg: 182%

## N#CC1CN1C1(N2CC2C(N)=O)CCCCC1 (stereo not drawn) [Example 10, 1-[2-Cyanoaziridinyl-(1)]-1-[2-carbamoylaziridinyl-(1)]cyclohexane]
Walker-Carcinoma 256; 10.0 mg/kg oral
  Tumor weight: 7.9 g
Walker-Carcinoma 256; 50.0 mg/kg oral
  Tumor weight: 5.0 g
  Difference (tumor weight): -41.7%
Walker-Carcinoma 256; 100.0 mg/kg oral
  Tumor weight: 4.5 g
  Difference (tumor weight): -46.9%
Leucocyte number; 50 mg per kg body weight
  proportion of the average leucocyte number of the test group to that of the control group: 0,92
Leucocyte number; 200 mg per kg body weight
  proportion of the average leucocyte number of the test group to that of the control group: 2,06
DC-Carcino-Sarcoma; 50 mg/kg oral
  Tumor weight: 11.0 g
  Difference (tumor weight): -38.5%
DC-Carcino-Sarcoma; 100 mg/kg oral
  Tumor weight: 10.9 g
  Difference (tumor weight): -40.0%

## N#CC1CN1C1(N2CC2C(N)=O)CCCCC1 (stereo not drawn) [Example 16, 1-[2-Cyanoaziridinyl-(1)]-1-[2-carbamoylaziridinyl-(1)]-cyclohexane]
Leucocyte number; 50 mg per kg body weight
  proportion of the average leucocyte number of the test group to that of the control group: 1,30
Leucocyte number; 200 mg per kg body weight
  proportion of the average leucocyte number of the test group to that of the control group: 1,50

## CC1CCC(N2CC2C#N)(N2CC2C(N)=O)CC1 (stereo not drawn) [Example 19, 1-[2-Cyanoaziridinyl-(1)]-1-[2-carbamoylaziridinyl-(1)]-4-methylcyclohexane]
Leucocyte number; 50 mg per kg body weight
  response vs control in vivo at 50 mg/kg: 100%
Leucocyte number; 200 mg per kg body weight
  response vs control in vivo at 200 mg/kg: 136%

## COC(=O)C1CCC(N2CC2C#N)(N2CC2C(N)=O)CC1 (stereo not drawn) [Example 20, 1-[2-Cyanoaziridinyl-(1)]-1-[2-carbamoylaziridinyl-(1)]-4-methoxycarbonylcyclohexane]
Leucocyte number; 50 mg per kg body weight
  response vs control in vivo at 50 mg/kg: 123%
Leucocyte number; 200 mg per kg body weight
  response vs control in vivo at 200 mg/kg: 151%

## N#CC1CN1C1CCCC(N2CC2C#N)(N2CC2C(N)=O)C1 (stereo not drawn) [Example 21, 1,3-Bis-[2-cyanoaziridinyl-(1)]-1-[2-carbamoylaziridinyl-(1)]-cyclohexane]
Leucocyte number; 50 mg per kg body weight
  response vs control in vivo at 50 mg/kg: 111%
Leucocyte number; 200 mg per kg body weight
  response vs control in vivo at 200 mg/kg: 130%

## N#CC1CN1C(c1ccccc1)(c1ccccc1)N1CC1C(N)=O (stereo not drawn) [Example 26, α-[2-Cyanoaziridinyl-(1)]-α-[2-carbamoylaziridinyl-(1)]-diphenylmethane]
Leucocyte number; 50 mg per kg body weight
  response vs control in vivo at 50 mg/kg: 125%
Leucocyte number; 200 mg per kg body weight
  response vs control in vivo at 200 mg/kg: 120%

## CC(N1CC1C#N)N1CC1C(N)=O (stereo not drawn) [Example 27, 1-[2-Cyanoaziridinyl-(1)]-1-[2-carbamoylaziridinyl-(1)]-ethane]
Leucocyte number; 50 mg per kg body weight
  response vs control in vivo at 50 mg/kg: 117%
Leucocyte number; 200 mg per kg body weight
  response vs control in vivo at 200 mg/kg: 153%

## N#CC1CN1C1(N2CC2C(N)=O)CCCSC1 (stereo not drawn) [Example 28, 3-[2-Cyanoaziridinyl-(1)]-3-[2-carbamoylaziridinyl-(1)]-tetrahydrothiapyran]
Leucocyte number; 50 mg per kg body weight
  response vs control in vivo at 50 mg/kg: 126%
Leucocyte number; 200 mg per kg body weight
  response vs control in vivo at 200 mg/kg: 180%

## N#CC1CN1C(C=Cc1ccccc1)N1CC1C(N)=O (stereo not drawn) [Example 31, 3-[2-cyanoaziridinyl-(1)]-3-[2-carbamoylaziridinyl-(1)]-1-phenylprop-1-ene]
Leucocyte number; 50 mg per kg body weight
  response vs control in vivo at 50 mg/kg: 113%
Leucocyte number; 200 mg per kg body weight
  response vs control in vivo at 200 mg/kg: 141%

## N#CC1CN1C1(N2CC2C#N)CCCCC1 (stereo not drawn) [Example 32, 1,1-bis-[2-cyanoaziridinyl-(1)]-cyclohexane]
Leucocyte number; 50 mg per kg body weight
  response vs control in vivo at 50 mg/kg: 150%
Leucocyte number; 200 mg per kg body weight
  response vs control in vivo at 200 mg/kg: 150%
